Where “and” joins values, the source holds several entries; their conditions need not be identical. Identical values can stand only once.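 96-well plates; 48 h exposure; 5 concentrations. Endpoints by linear interpolation between flanking doses. Not reached: highest tested concentration assigned. Abbreviation: GI50, concentration required for 50% inhibition of growth. Definition used: TGI = concentration required for complete inhibition of growth.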
What was measured:
Assay in all cases: inhibition of tumour cell growth, NCI panel, 48 h
BT-549 breast = system: BT-549 breast
ACHN renal = system: ACHN renal
786-0 renal = system: 786-0 renal
K-562 leukemia = system: K-562 leukemia
SF-268 CNS = system: SF-268 CNS
CCRF-CEM leukemia = system: CCRF-CEM leukemia
MDA-MB-231 breast = system: MDA-MB-231 breast
SK-MEL-5 melanoma = system: SK-MEL-5 melanoma
PC-3 prostate = system: PC-3 prostate
RXF 393 renal = system: RXF 393 renal

## O=C1CCCCC=C1C[N+](=O)[O-]
BT-549 breast
  GI50: 26 µM
  TGI: 61.4 µM
ACHN renal
  GI50: 15600 nM
  TGI: 31.2 µM
786-0 renal
  GI50: 17600 nM
  TGI: 39.6 µM
K-562 leukemia
  GI50: 22.5 µM
  TGI: > 100 µM
SF-268 CNS
  GI50: 30.8 µM
  TGI: > 100 µM
CCRF-CEM leukemia
  GI50: 5.7 µM
  TGI: 23.3 µM
MDA-MB-231 breast
  GI50: 22200 nM
  TGI: 49.4 µM
SK-MEL-5 melanoma
  GI50: 26.9 µM
  TGI: 74.3 µM
PC-3 prostate
  GI50: 41.1 µM
  TGI: > 100 µM
RXF 393 renal
  GI50: 14700 nM
  TGI: 35.2 µM

## O=C1C(=O)c2ccccc2C(O)=C1CCCc1ccc(C2CCCC2)cc1
BT-549 breast
  GI50: 10.5 µM
  TGI: 48.6 µM
ACHN renal
  GI50: 6080 nM
  TGI: 39.6 µM
786-0 renal
  GI50: 4020 nM
  TGI: 21.4 µM
K-562 leukemia
  GI50: 3.31 µM
  TGI: 10.4 µM
SF-268 CNS
  GI50: 5.1 µM
  TGI: 51.5 µM
CCRF-CEM leukemia
  GI50: 4.62 µM
  TGI: 30.3 µM
MDA-MB-231 breast
  GI50: 11100 nM
  TGI: 43.9 µM
SK-MEL-5 melanoma
  GI50: 3.79 µM
  TGI: 14.5 µM
PC-3 prostate
  GI50: 3.3 µM
  TGI: 19.7 µM
RXF 393 renal
  GI50: 1410 nM
  TGI: 11.6 µM

## O=C1C(Nc2ccc(Br)cc2)=C(I)C(=O)c2ncccc21
BT-549 breast
  GI50: 1.85 µM
  TGI: 5.9 µM
ACHN renal
  GI50: 738 nM
  TGI: 1.56 µM
786-0 renal
  GI50: 905 nM
  TGI: 2.21 µM
K-562 leukemia
  GI50: 0.499 µM
  TGI: 3.61 µM
SF-268 CNS
  GI50: 1.13 µM
  TGI: 4.94 µM
CCRF-CEM leukemia
  GI50: 0.859 µM
  TGI: 2.97 µM
MDA-MB-231 breast
  GI50: 806 nM
  TGI: 1.63 µM
SK-MEL-5 melanoma
  GI50: 0.803 µM
  TGI: 1.51 µM
PC-3 prostate
  GI50: 0.888 µM
  TGI: 6.44 µM
RXF 393 renal
  GI50: 909 nM
  TGI: 1.73 µM

## CO[C@]12C=C/C(=C(/C(=O)OCc3cccnc3)C(=O)CCCCCCCC[C@@]3(OC)C=C/C(=C(/C(=O)OCc4cccnc4)C(=O)CCCCCCCC1)O3)O2
BT-549 breast
  GI50: 1.51 µM
  TGI: 4.29 µM
ACHN renal
  GI50: 1300 nM
  TGI: > 50 µM
786-0 renal
  GI50: 1320 nM
  TGI: 4.71 µM
K-562 leukemia
  GI50: 1.46 µM
  TGI: > 50 µM
SF-268 CNS
  GI50: 1.47 µM
  TGI: 6.53 µM
CCRF-CEM leukemia
  GI50: 0.741 µM
  TGI: 7.8 µM
MDA-MB-231 breast
  GI50: 2250 nM
  TGI: > 50 µM
SK-MEL-5 melanoma
  GI50: 0.856 µM
  TGI: 1.64 µM
PC-3 prostate
  GI50: 1.74 µM
  TGI: > 50 µM
RXF 393 renal
  GI50: 915 nM
  TGI: 1.7 µM

## CC(C)=CCC1=C(OCC(=O)O)C(=O)c2ccccc2C1=O
BT-549 breast
  TGI: > 100 µM
ACHN renal
  TGI: > 100 µM
786-0 renal
  TGI: > 100 µM
K-562 leukemia
  TGI: > 100 µM
SF-268 CNS
  TGI: 65 µM
CCRF-CEM leukemia
  TGI: 54.7 µM
MDA-MB-231 breast
  TGI: > 100 µM
SK-MEL-5 melanoma
  TGI: 41.4 µM
PC-3 prostate
  TGI: > 100 µM
RXF 393 renal
  TGI: 81.1 µM

## COC(C(=O)C(O)C(C)O)C1Cc2cc3cc(OC4CC(OC5CC(O)C(O)C(C)O5)C(O)C(C)O4)c(C)c(O)c3c(O)c2C(=O)C1OC1CC(OC2CC(O)C(OC3CC(C)(O)C(O)C(C)O3)C(C)O2)C(O)C(C)O1 (centres undefined)
BT-549 breast
  GI50: 0.015 µg/mL
  TGI: 0.0739 µg/mL
ACHN renal
  GI50: 0.0162 µg/mL and 0.0326 µg/mL
  TGI: 112 µg/mL and > 150 µg/mL
786-0 renal
  GI50: 0.0112 µg/mL and 0.0152 µg/mL
  TGI: 112 µg/mL and 64.7 µg/mL
K-562 leukemia
  GI50: 11.2 ng/mL and 2.32 ng/mL
SF-268 CNS
  GI50: 16.7 ng/mL and 1.13 ng/mL
CCRF-CEM leukemia
  GI50: 11.2 ng/mL and 0.853 ng/mL
MDA-MB-231 breast
  GI50: 0.0279 µg/mL and 0.032 µg/mL
  TGI: 112 µg/mL and 43.5 µg/mL
SK-MEL-5 melanoma
  GI50: 11.2 ng/mL and 1.86 ng/mL
PC-3 prostate
  GI50: 0.0194 µg/mL and 0.0396 µg/mL
RXF 393 renal
  GI50: 11.2 ng/mL and 0.246 ng/mL

## CCOC(=O)c1ccc2c(c1)nc(/C=C/c1ccc(Cl)cc1)n2-c1cc(C(C)(C)C)[nH]n1
BT-549 breast
  GI50: 4.54 µM
  TGI: 25.6 µM
ACHN renal
  GI50: 2030 nM
  TGI: 5.75 µM
786-0 renal
  GI50: 2980 nM
  TGI: 9.29 µM
K-562 leukemia
  GI50: 4.41 µM
  TGI: > 100 µM
SF-268 CNS
  GI50: 5.86 µM
  TGI: > 100 µM
CCRF-CEM leukemia
  GI50: 7.54 µM
  TGI: > 100 µM
MDA-MB-231 breast
  GI50: 2370 nM
  TGI: 7.57 µM
SK-MEL-5 melanoma
  GI50: 3.63 µM
  TGI: 28.3 µM
PC-3 prostate
  GI50: 5.85 µM
  TGI: 47 µM
RXF 393 renal
  GI50: 2210 nM
  TGI: 6.48 µM

— PubChem BioAssay (NCI)
